Assay results reported in US12446577B2 (priority 2018, dated 2025).
Read-outs that look alike come from different tables or passages of the source.

Columns and labels:
[1] = test system: Fusarium graminearum; assay type: cell-based; details: 6 days at 25° C; for Average mycellium diameter: n = 4; for % inhibition of the pathogens: vs untreated PDA
[2] = test system: Powdery Mildew (Podosphaera xanthii); test: Single leaf test powdery mildew on zucchini; details: zucchini leaf N sprayed with 0.8% in water; 8 days after the treatment
Procedure: Single leaf test Powdery Mildew (Podosphaera xanthii). A zucchini plant was selected with a powdery mildew infection on old leaves. In addition to a leaf showing the first signs of infection of powdery mildew (leaf N−1), two leaves without infection (leaf N and N+1) were selected.
Leaves (N+1) and (N−1) were left untreated. The fungal infection was assessed 8 days after the treatment.

[3] = test system: Botrytis cinerea (lettuce); test: Mycelium growth inhibition on PDA (Example 2); assay type: cell-based; details: 6 days at 25° C; for Average mycellium diameter: n = 4; for % inhibition of the pathogens: vs untreated PDA
Procedure: (§1) Strains used for this trial (Table 3) were kept and refreshed on Potato Dextrose Agar (PDA) at 25° C.
(§2) In a first setup, a test composition was directly added to PDA (about 20 mL/petri dish) (Table 4). Plugs of agar (diameter 8 mm) from two week-old cultures were placed at the center of the PDA plates. Each test was performed in 4 repetitions. The petri dishes were then incubated at 25° C. After 6 days of incubation, the diameter of the colonies was measured in 2 perpendicular directions. The percentage of inhibition was calculated for each tested composition and compared to the untreated PDA.

[4] = test system: Colletotrichum coccodes; test: Mycelium growth inhibition on PDA (Example 2); assay type: cell-based; details: 6 days at 25° C; for Average mycellium diameter: n = 4; for % inhibition of the pathogens: vs untreated PDA
Procedure: as §1, §2

[5] = test system: Alternaria solani; test: Mycelium growth inhibition on PDA (Example 2); assay type: cell-based; details: 6 days at 25° C; for Average mycellium diameter: n = 4; for % inhibition of the pathogens: vs untreated PDA
Procedure: as §1, §2

[6] = test system: Botrytis cinerea (grapevine); test: Mycelium growth inhibition on PDA (Example 2); assay type: cell-based; details: 6 days at 25° C; for Average mycellium diameter: n = 4; for % inhibition of the pathogens: vs untreated PDA
Procedure: as §1, §2

[7] = test system: Bintje leaflets; test: Phytotoxicity symptoms on dipped potato leaflets (Example 4); assay type: in vivo; details: highest concentration (10 L/ha), 7 days

With CCCCCCCCC(=O)[O-].C[N+](C)(C)CCO [Choline pelargonate, choline pelargonate] the Average mycellium diameter ([1]; 0.36% AI in PDA) was 17.6 ± 21.1 mm, the “% inhibition of the pathogens” value ([1]; 0.36% AI in PDA) was 77% and the Average mycellium diameter ([1]; 3.6% AI in PDA) was 0.0 ± 0.0 mm. For the same compound, the “% inhibition of the pathogens” value ([1]; 3.6% AI in PDA) was 100%, the “surface of leaf covered by powdery mildew” value [2] was “less than 5%” and the Average mycellium diameter ([3]; 0.36% AI in PDA) was 0.0 ± 0.0 mm. For the same compound, the “% inhibition of the pathogens” value ([3]; 0.36% AI in PDA) was 100%, the Average mycellium diameter ([3]; 3.6% AI in PDA) was 0.0 ± 0.0 mm and the “% inhibition of the pathogens” value ([3]; 3.6% AI in PDA) was 100%. The Average mycellium diameter ([4]; 0.36% AI in PDA) was 0.0 ± 0.0 mm, the “% inhibition of the pathogens” value ([4]; 0.36% AI in PDA) was 100% and the Average mycellium diameter ([4]; 3.6% AI in PDA) was 0.0 ± 0.0 mm. The “% inhibition of the pathogens” value ([4]; 3.6% AI in PDA) was 100%, the Average mycellium diameter ([5]; 0.36% AI in PDA) was 0.0 ± 0.0 mm and the “% inhibition of the pathogens” value ([5]; 0.36% AI in PDA) was 100%. The Average mycellium diameter ([5]; 3.6% AI in PDA) was 0.0 ± 0.0 mm, the “% inhibition of the pathogens” value ([5]; 3.6% AI in PDA) was 100% and the Average mycellium diameter ([6]; 0.36% AI in PDA) was 0.0 ± 0.0 mm. For the same compound, the “% inhibition of the pathogens” value ([6]; 0.36% AI in PDA) was 100%, the Average mycellium diameter ([6]; 3.6% AI in PDA) was 0.0 ± 0.0 mm and the “% inhibition of the pathogens” value ([6]; 3.6% AI in PDA) was 100%. The “phytotoxicity symptoms on leaflets” value [7] was “some minor phytoxicity symptoms on the edge and stem”.
